Assay [1] relates to Ramos cells. In words: Cytotoxicity (cell death) in Ramos cells. The class given is cell-based. Here is the method: (§1) The compounds listed in Table 9 were tested for activity against F1F0-ATPase by measuring ATP synthesis and ATP hydrolysis. In addition, the compounds were assessed for cytotoxicity in Ramos cells Inhibition of ATP synthesis and hydrolysis by the F1F0-ATPase and cytotoxicity in Ramos cells was measured as described in K. M. Johnson et al. Chemistry & Biology 2005, 12, 485-496.

Assay [2] addresses T1, F1F0-ATPase (Bos taurus, UniProt P13621). In words: Inhibition of ATP synthesis by the F1F0-ATPase. The format is biochemical. The settings on record: IC40: concentration for 40% inhibition. Here is the method: as §1
The target of assay [3] is T1, F1F0-ATPase. The experiment in a line: Inhibition of ATP hydrolysis by the F1F0-ATPase. The class given is biochemical. As to conditions: IC40: concentration for 40% inhibition. Here is the method:
as §1

We go through 10 molecules from patent US8324258B2, “F1F0-ATPase inhibitors and related methods” (The Regents of the University of Michigan, priority 2007, dated 2012).

A word on the EC50: it is the midpoint of the concentration-response curve. A lower EC50 goes with higher potency in that assay. `COc1cccc(-c2ccc(NC(=NC(=O)c3cccc(Cl)c3)NCCc3c[nH]cn3)cc2)c1` [III-34, (Z/E)-N-((2-(1H-imidazol-4-yl)ethylamino)(3′-methoxybiphenyl-4-ylamino)methylene)-3-chlorobenzamide] gave an EC50 in assay [1] (Ramos cells) of less than 10 µM. The “ATP Synthesis (IC40 μM)” value in assay [2] was less than 10 µM. Further, the “ATP Hydrolysis (IC40 μM)” value in assay [3] is more than 10 µM.

As for `Cc1cccc(-c2ccc(NC(=NC(=O)c3cccc(Cl)c3)NCCc3c[nH]cn3)cc2)c1` [III-31, (Z/E)-N-((2-(1H-imidazol-4-yl)ethylamino)(3′-methylbiphenyl-4-ylamino)methylene)-3-chlorobenzamide], in assay [1] (Ramos cells), the EC50 was less than 10 µM. Moreover, in assay [2], the “ATP Synthesis (IC40 μM)” value was more than 10 µM. Besides, in assay [3], the “ATP Hydrolysis (IC40 μM)” value is more than 10 µM.

Turning to `O=C(/N=C(/NCCn1ccnc1)Nc1ccc(-c2ccccc2)cc1)c1cccc(Cl)c1` [IV-2, (Z/E)-N-((2-(1H-imidazol-1-yl)ethylamino)(biphenyl-4-ylamino)methylene)-3-chlorobenzamide], the concentration for a half-maximal effect (EC50) in assay [1] (Homo sapiens, Ramos) is more than 10 µM. Moreover, the “ATP Synthesis (IC40 μM)” value in assay [2] was less than 10 µM. Besides, the “ATP Hydrolysis (IC40 μM)” value in assay [3] is more than 10 µM.

In the case of `O=C(N=C(NCCc1c[nH]cn1)Nc1ccccc1C(F)(F)F)c1cccc(Cl)c1` [III-23, (Z/E)-N-((2-(1H-imidazol-4-yl)ethylamino)(2-(trifluoromethyl)phenylamino)methylene)-3-chlorobenzamide], in assay [1] (Ramos cells), the half-maximal effective concentration (EC50) was more than 20 µM. Further, the “ATP Synthesis (IC40 μM)” value in assay [2] was more than 20 µM. In assay [3], the “ATP Hydrolysis (IC40 μM)” value is more than 20 µM.

In assay [1] (Ramos cells), `COc1ccc(-c2ccc(NC(=NC(=O)c3cccc(Cl)c3)NCCc3c[nH]cn3)cc2)cc1` [III-35, (Z/E)-N-((2-(1H-imidazol-4-yl)ethylamino)(4′-methoxybiphenyl-4-ylamino)methylene)-3-chlorobenzamide] gave a concentration for a half-maximal effect (EC50) of less than 10 µM. Moreover, in assay [2], the “ATP Synthesis (IC40 μM)” value was less than 10 µM. Moreover, the “ATP Hydrolysis (IC40 μM)” value in assay [3] is more than 10 µM.

Turning to `O=C(N=C(NCCc1c[nH]cn1)Nc1cccc(-c2ccccc2)c1)c1cccc(C(F)(F)F)c1` [VI-3, (Z/E)-N-((2-(1H-imidazol-4-yl)ethylamino)(biphenyl-3-ylamino)methylene)-3-(trifluoromethyl)benzamide], in assay [1] (Ramos cells), the half-maximal effective concentration (EC50) is less than 10 µM. Besides, the “ATP Synthesis (IC40 μM)” value in assay [2] was less than 10 µM. For the same molecule, the “ATP Hydrolysis (IC40 μM)” value in assay [3] is more than 10 µM.

Turning to `O=C(N=C(NCCc1c[nH]cn1)Nc1cccc(Br)c1)c1cccc(Cl)c1` [III-3, (Z/E)-N-((2-(1H-imidazol-4-yl)ethylamino)(3-bromophenylamino)methylene)-3-chlorobenzamide], the 50% effective concentration (EC50) in assay [1] (Ramos cells) is more than 10 µM. In addition, the “ATP Synthesis (IC40 μM)” value in assay [2] was less than 10 µM. Besides, in assay [3], the “ATP Hydrolysis (IC40 μM)” value was more than 10 µM.

With `O=C(N=C(NCCc1c[nH]cn1)Nc1cccc(-c2ccccc2)c1)c1ccc(C(F)(F)F)cc1` [VI-4, (Z/E)-N-((2-(1H-imidazol-4-yl)ethylamino)(biphenyl-3-ylamino)methylene)-4-(trifluoromethyl)benzamide], in assay [1] (Ramos cells), the half-maximal effective concentration (EC50) was more than 10 µM. Also, in assay [2], the “ATP Synthesis (IC40 μM)” value is less than 10 µM. For the same molecule, the “ATP Hydrolysis (IC40 μM)” value in assay [3] is more than 10 µM.

As for `O=C(N=C(NCCc1c[nH]cn1)Nc1ccc(Cl)cc1)c1cccc(Cl)c1` [III-19, (Z/E)-N-((2-(1H-imidazol-4-yl)ethylamino)(4-chlorophenylamino)methylene)-3-chlorobenzamide], the concentration for a half-maximal effect (EC50) in assay [1] (Ramos cells) was more than 10 µM. Besides, in assay [2], the “ATP Synthesis (IC40 μM)” value was more than 10 µM. In assay [3], the “ATP Hydrolysis (IC40 μM)” value is more than 30 µM.

With `O=C(N=C(NCCc1c[nH]cn1)Nc1ccc(-c2ccccc2)cc1)c1ccc(C(F)(F)F)cc1` [II-5, (Z/E)-N-((2-(1H-imidazol-4-yl)ethylamino)(biphenyl-4-ylamino)methylene)-4-(trifluoromethyl)benzamide], the concentration for a half-maximal effect (EC50) in assay [1] (Ramos cells) was less than 10 µM. Also, in assay [2], the “ATP Synthesis (IC40 μM)” value was more than 10 µM. The “ATP Hydrolysis (IC40 μM)” value in assay [3] is more than 10 µM.
